Source: patent US20110028472A1, “THIENOPYRIMIDINES” (MERCK PATENT CESELLSCHAFT MIT BESCHRANKTER HAFTUNG, priority 2008, published 2011)

Biological target: T1, GST-ALK5 (Homo sapiens, UniProt P36897)
T1 sequence (P36897 34-503): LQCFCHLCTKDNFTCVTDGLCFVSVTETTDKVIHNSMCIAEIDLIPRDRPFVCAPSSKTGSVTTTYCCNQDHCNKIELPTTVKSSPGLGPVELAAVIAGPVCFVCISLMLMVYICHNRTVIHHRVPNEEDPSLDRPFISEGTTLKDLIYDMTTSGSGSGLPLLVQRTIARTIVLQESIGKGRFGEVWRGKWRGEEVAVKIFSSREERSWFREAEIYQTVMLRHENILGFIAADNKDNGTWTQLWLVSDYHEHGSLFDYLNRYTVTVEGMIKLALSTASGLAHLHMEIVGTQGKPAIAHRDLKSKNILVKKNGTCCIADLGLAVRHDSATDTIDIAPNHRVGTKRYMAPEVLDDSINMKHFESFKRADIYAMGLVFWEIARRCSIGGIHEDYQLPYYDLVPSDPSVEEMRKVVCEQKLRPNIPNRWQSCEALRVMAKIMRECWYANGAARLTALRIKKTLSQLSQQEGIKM
Assay: In-vitro (enzyme) kinase assay, 384-well flashplate, inhibition of TGF-beta receptor I kinase
Type: biochemical
Conditions: 31.2 nM GST-ALK5, 439 nM GST-SMAD2, 3 mM ATP (33P-ATP), 30° C., 45 min
Description: In-Vitro (Enzyme) Assay for the Determination of the Efficacy of Inhibitors of the Inhibition of TGF-Beta-Promoted Effects Vermittelten Wirkungen
The kinase assay is carried out as 384-well flashplate assay. 31.2 nM of GST-ALK5, 439 nM of GST-SMAD2 and 3 mM of ATP (with 0.3 μCi of ^33P-ATP/well) are incubated in a total volume of 35 μl (20 mM of HEPES, 10 mM of MgCl, 5 mM of MnCl, 1 mM of DTT, 0.1% of BSA, pH 7.4) without or with test substance (5-10 concentrations) at 30° C. for 45 min. The reaction is stopped using 25 μl of 200 mM EDTA solution, filtered with suction at room temperature after 30 min, and the wells are washed with 3 times 100 μl of 0.9% NaCl solution. Radioactivity is measured in the TopCount. The IC50 values are calculated using RS1.

| IC50 [nM] | SMILES |
| --- | --- |
| 48 | Cc1ccc(-c2nc(C3CC3)nc3sc(C(N)=O)c(N)c23)o1 [Compound A1, 5-amino-2-cyclopropyl-4-(5-methylfuran-2-yl)-thieno[2,3-d]pyrimidine-6-carboxamide] |
| 36 | CNc1nc(-c2ccc(C)o2)c2c(N)c(C(N)=O)sc2n1 [Compound A34, 5-amino-2-methylamino-4-(5-methylfuran-2-yl)thieno[2,3-d]pyrimidine-6-carboxamide] |
| 67 | C=CCNc1nc(-c2ccc(C)o2)c2c(N)c(C(N)=O)sc2n1 [Compound A42, 2-allylamino-5-amino-4-(5-methylfuran-2-yl)-thieno[2,3-d]pyrimidine-6-carboxamide] |
| 77 | Cc1ccc(-c2nc(C(C)(C)C)nc3sc(C(N)=O)c(N)c23)o1 [Compound A26, 5-amino-2-tert-butyl-4-(5-methylfuran-2-yl)thieno[2,3-d]pyrimidine-6-carboxamide] |
| 79 | Cc1cccc(-c2nc(NCCC#N)nc3sc(C(N)=O)c(N)c23)n1 [Compound A56, 5-amino-2-(2-cyanoethylamino)-4-(6-methylpyridin-2-yl)thieno[2,3-d]-pyrimidine-6-carboxamide] |
| 46 | CSc1nc(-c2ccc(C)o2)c2c(N)c(C(N)=O)sc2n1 [Compound A10, 5-Amino-4-(5-methylfuran-2-yl)-2-methyl-sulfanylthieno[2,3-d]pyrimidine-6-carboxamide] |
| 87 | CC(C)(C)c1nc(-c2ccco2)c2c(N)c(C(N)=O)sc2n1 [Compound A25, 5-amino-2-tert-butyl-4-furan-2-ylthieno[2,3-d]pyrimidine-6-carboxamide] |
| 97 | CSc1nc(-c2ccco2)c2c(N)c(C(N)=O)sc2n1 [Compound A8, 5-amino-4-furan-2-yl-2-methylsulfanylthieno[2,3-d]pyrimidine-6-carboxamide] |
| 22 | C=CCNc1nc(-c2cccc(C)n2)c2c(N)c(C(N)=O)sc2n1 [Compound A50, 2-allylamino-5-amino-4-(6-methylpyridin-2-yl)thieno[2,3-d]pyrimidine-6-carboxamide] |
| 54 | C#CCNc1nc(-c2cccc(C)n2)c2c(N)c(C(N)=O)sc2n1 [Compound A52, 5-amino-4-(6-methylpyridin-2-yl)-2-prop-2-ynylaminothieno[2,3-d]pyrimidine-6-carboxamide] |
